In patent US10010614B2, “Derivatives of GLP-1 like peptides, and uses thereof” (Novo Nordisk A/S, priority 2013, dated 2018):
Numbered stars: 1 amine (or outer) side, 2 acyl side, 3 side chain; on linkers, the order of the positions; unused ones are H or OH. Square brackets hold non-standard residues; d marks the D form. Side chains are listed from the residue outwards. Peptide text beside a SMILES is read from it. * marks the point of attachment. C20 diacid = O=C(O)CCCCCCCCCCCCCCCCCCC(=O)*; γGlu = O=C(O)[C@H](CCC(=O)[*:2])N[*:1]; Trx = NC[C@H]1CC[C@H](C(=O)O)CC1; PEG4 = NCCOCCOCCOCCOCCC(=O)O; AEEA = NCCOCCOCC(=O)O; Aib = CC(C)(N)C(=O)O

Experiments:
human GLP-1 receptor [1] = target: T1, human GLP-1 receptor (Homo sapiens, UniProt P43220); experiment: GLP-1 receptor binding, competitive binding assay (125I-GLP-1, SPA) on isolated membranes;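 also: test compounds added at a range of concentrations to membranes from cells expressing the human GLP-1 receptor, scored by displacement of labelled ligand, read with WGA SPA beads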
T1 construct: expressed in transfected cells; host or cells: membranes prepared from BHK cells (parent line BHKTS13), clone FCW467-12A
T1 sequence (P43220 24-463): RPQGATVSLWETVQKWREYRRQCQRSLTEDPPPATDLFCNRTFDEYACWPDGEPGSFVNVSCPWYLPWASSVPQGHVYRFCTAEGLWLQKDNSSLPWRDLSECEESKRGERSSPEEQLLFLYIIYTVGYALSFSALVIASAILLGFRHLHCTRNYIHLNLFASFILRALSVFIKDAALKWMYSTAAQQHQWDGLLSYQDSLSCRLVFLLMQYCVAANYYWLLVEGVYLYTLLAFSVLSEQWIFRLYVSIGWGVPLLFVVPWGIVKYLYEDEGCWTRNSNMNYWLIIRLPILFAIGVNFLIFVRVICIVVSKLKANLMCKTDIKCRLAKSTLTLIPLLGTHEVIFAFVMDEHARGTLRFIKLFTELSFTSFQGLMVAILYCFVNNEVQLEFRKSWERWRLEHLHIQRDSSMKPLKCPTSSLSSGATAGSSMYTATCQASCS
Description: The purpose of this example is to test the receptor binding of the GLP-1 derivatives in vitro. The receptor binding is a measure of affinity of a derivative for the human GLP-1 receptor.
In this type of assay a labelled ligand (in this case ^125I-GLP-1) is bound to the receptor. Each derivative is added in a series of concentrations to isolated membranes containing the human GLP-1 receptor and displacement of the labelled ligand is monitored. The receptor binding is reported as the concentration at which half of the labelled ligand is displaced from the receptor, the IC50 value.
The following chemicals were used in the assay: Human serum albumin (HSA) (Sigma A1653), DMEM w/o phenol red (Gibco 11880-028), Pen/strep (Invitrogen 15140-122), G418 (Invitrogen 10131-027), 1 M Hepes (Gibco 15630), EDTA (Invitrogen 15575-038), PBS (Invitrogen 14190-094), fetal calf serum (Invitrogen 16140-071), EGTA, MgCl2 (Merck 1.05832.1000), Tween 20 (Amresco 0850C335), SPA particles (wheat germ agglutinin (WGA) SPA beads, Perkin Elmer RPNQ0001), [^125I]-GLP-1]-(7-36)NH2 (produced in-house), OptiPlate™-96 (Packard 6005290).
Buffer 1 consisted of 20 mM Na-HEPES plus 10 mM EDTA and pH was adjusted to 7.4. Buffer 2 consisted of 20 mM Na-HEPES plus 0.1 mM EDTA and pH was adjusted to 7.4. Assay buffer consisted of 50 mM HEPES supplemented with 5 mM EGTA, 5 mM MgCl2, 0.005% Tween 20 and pH was adjusted to 7.4. An 8% albumin stock consisted of HSA dissolved at 8% (w/v) in assay buffer. An 0.02% albumin stock consisted of HSA dissolved at 0.02% (w/v) in assay buffer.
The cells express the human GLP-1 receptor.
The cells were grown at 5% CO2 in DMEM, 10% fetal calf serum, 1% Pen/Strep (Penicillin/Streptomycin) and 1.0 mg/ml of the selection marker G418.
To make a membrane preparation the cells were grown to approximately 80% confluence. The cells were washed twice in phosphate-buffered saline and harvested. The cells were pelleted using a brief centrifugation and the cell pellet was kept on ice. The cell pellet was homogenised with ULTRA-THURRAX™ dispersing instrument for 20-30 seconds in a suitable amount of buffer 1 (e.g., 10 ml). The homogenate was centrifuged for 15 minutes. The pellet was re-suspended (homogenised) in 10 ml buffer 2 and centrifuged. This step was repeated once more. The resulting pellet was re-suspended in buffer 2 and the protein concentration was determined. The membranes were aliquoted and stored at minus 80° C.
For the receptor binding assay in the presence of low HSA (0.005%) 50 μl of the assay buffer was added to each well of an assay plate.
For the receptor binding assay in the presence of high HSA (2%) 50 μl of the 8% albumin stock was added to each well of an assay plate.
Cell membrane aliquots were thawed and diluted to their working concentration. Fifty μl were added to each well in the assay plate.
WGA SPA beads were suspended in assay buffer at 20 mg/ml. The suspension was diluted to 10 mg/ml in assay buffer just prior to addition to the assay plate. Fifty μl were added to each well in the assay plate.
The incubation was started by adding 25 μl of 480 pM solution of [^125I]-GLP-1]-(7-36)NH2 to each well of the assay plate. A 25 μl aliquot was reserved for measuring total counts/well.
The assay plate was incubated for 2 h at 30° C.
The assay plate was centrifuged for 10 min.
The assay plate was read in a Packard TopCount NXT instrument.
The data from the TopCount instrument were transferred to GraphPad Prism software. The software averaged the values for the replicates and performed a non-linear regression. IC50 values were calculated by the software and reported in nM.

human GLP-1 receptor [2] = target: T1, human GLP-1 receptor; experiment: In vitro potency, CRE luciferase reporter gene assay in BHK cells expressing the human GLP-1 receptor; assay type: cell-based; details: whole cell reporter gene assay, 3 h incubation, no HSA, averages of at least two replicates
Description: The purpose of this example is to test the activity, or potency, of the GLP-1 derivatives in vitro. The in vitro potency is the measure of human GLP-1 receptor activation in a whole cell assay.
Semaglutide was included for comparison.
In vitro potency was determined by measuring the response of the human GLP-1 receptor in a reporter gene assay. The assay was performed in a stably transfected BHK cell line that expresses the human GLP-1 receptor and contains the DNA for the cAMP response element (CRE) coupled to a promoter and the gene for firefly luciferase (CRE luciferase). When the human GLP-1 receptor is activated it results in the production of cAMP, which in turn results in the luciferase protein being expressed. When assay incubation is completed the luciferase substrate (luciferin) is added and the enzyme converts luciferin to oxyluciferin to produce bioluminescence. The luminescence is measured as the readout for the assay.
The cells used in this assay (clone FCW467-12A/KZ10-1) were BHK cells with BHKTS13 as a parent cell line. The cells were derived from a clone (FCW467-12A) that expresses the human GLP-1 receptor and were established by further transfection with CRE luciferase to obtain the current clone.
The cells were cultured at 5% CO2 in Cell Culture Medium. They were aliquoted and stored in liquid nitrogen. Before each assay an aliquot is taken up and washed twice in PBS before being suspended at the desired concentration in the assay specific buffer. For 96-well plates the suspension was made to give a final concentration of 5×10^3 cells/well.
The following chemicals were used in the assay: Pluronic F-68 (10%) (Gibco 2404), human serum albumin (HSA) (Sigma A9511), ovalbumin (Sigma A5503), DMEM w/o phenol red (Gibco 11880-028), 1 M Hepes (Gibco 15630), Glutamax 100× (Gibco 35050) and steadylite plus (PerkinElmer 6016757).
Cell Culture Medium consisted of DMEM medium with 10% FBS (Fetal Bovine Serum; Invitrogen 16140-071), 1 mg/ml G418 (Invitrogen 15140-122), 240 nM MTX (methotrexate; Sigma M9929) and 1% pen/strep (penicillin/streptomycin; Invitrogen 15140-122).
Assay Medium consisted of DMEM w/o phenol red, 10 mM Hepes and 1× Glutamax. The Assay Buffer consisted of 2% ovalbumin and 0.2% Pluronic F-68 in Assay Medium.
1) Cell stocks were thawed in a 37° C. water bath.
2) Cells were washed three times in PBS.
3) The cells were counted and adjusted to 5×10^3 cells/50 μl (1×10^5 cells/ml) in Assay Medium. A 50 μl aliquot of cells was transferred to each well in the assay plate.
4) Stocks of the test compounds and reference compounds were diluted to a concentration of 0.2 μM in Assay Buffer. Compounds were diluted 10-fold to give the following concentrations: 2×10^−7 M, […]; 2×10^−9 M, 2×10^−10 M, 2×10^−11 M, 2×10^−12 M, 2×10^−13 M, and 2×10^−14 M. 5) A 50 μl aliquot of compound or blank was transferred from the dilution plate to the assay plate. Compounds were tested at the following final concentrations: 1×10^−7 M, 1×10^−8 M; 1×10^−9 M, 1×10^−10 M, 1×10^−11 M, 1×10^−12 M, 1×10^−13 M, and 1×10^−14 M. 6) The assay plate was incubated for 3 h in a 5% CO2 incubator at 37° C. 7) The assay plate was removed from the incubator and allowed to stand at room temperature for 15 min. 8) A 100 μl aliquot of steadylite plus reagent was added to each well of the assay plate (reagent was light sensitive). 9) Each assay plate was covered with aluminum foil to protect it from light and shaken for 30 min at room temperature. 10) Each assay plate was read in a Packard TopCount NXT instrument. Calculations and Results
The data from the TopCount instrument were transferred to GraphPad Prism software. The software performs a non-linear regression (log(agonist) vs response).
A minimum of two replicates was measured for each sample. The reported values are averages of the replicates.

[3] = High HSA IC50 (nM), high serum albumin (2.0% HSA final assay concentration)
[4] = Low HSA IC50 (nM), low serum albumin (max. 0.001% final assay concentration)

SMILES | IC50 (human GLP-1 receptor [1]; [3]) | IC50 (human GLP-1 receptor [1]; [4]) | EC50 (human GLP-1 receptor [2])
CC[C@H](C)[C@H](NC(=O)[C@H](Cc1ccccc1)NC(=O)[C@H](CCC(=O)O)NC(=O)[C@H](CCCNC(=N)N)NC(=O)[C@H](C)NC(=O)[C@H](C)NC(=O)[C@H](CCC(N)=O)NC(=O)[C@H](CCC(=O)O)NC(=O)[C@H](CCC(=O)O)NC(=O)[C@H](CC(C)C)NC(=O)[C@H](Cc1ccc(O)cc1)NC(=O)[C@H](CO)NC(=O)[C@H](CO)NC(=O)[C@@H](NC(=O)[C@H](CC(=O)O)NC(=O)[C@H](CO)NC(=O)[C@@H](NC(=O)[C@H](Cc1ccccc1)NC(=O)[C@@H](NC(=O)CNC(=O)[C@H](CCC(=O)O)NC(=O)C(C)(C)NC(=O)[C@@H](N)Cc1c[nH]cn1)[C@@H](C)O)[C@@H](C)O)C(C)C)C(=O)N[C@@H](C)C(=O)N[C@@H](Cc1c[nH]c2ccccc12)C(=O)N[C@@H](CC(C)C)C(=O)N[C@H](C(=O)N[C@@H](CCCNC(=N)N)C(=O)NCC(=O)N[C@@H](CCCNC(=N)N)C(=O)NCC(=O)N[C@@H](CCCCNC(=O)CCOCCOCCOCCOCCNC(=O)CC[C@H](NC(=O)[C@H]1CC[C@H](CNC(=O)CCCCCCCCCCCCCCCCCCC(=O)O)CC1)C(=O)O)C(=O)NCC(=O)NCC(=O)N[C@@H](CO)C(=O)N[C@@H](CCCCNC(=O)CCOCCOCCOCCOCCNC(=O)CC[C@H](NC(=O)[C@H]1CC[C@H](CNC(=O)CCCCCCCCCCCCCCCCCCC(=O)O)CC1)C(=O)O)C(=O)O)C(C)C [Example 10, N{Alpha}([Aib8,Glu22,Arg26,Arg34]-GLP-1-(7-37)-peptidyl)-N{Epsilon}3-[2-[2-[2-[2-[[(4S)-4-carboxy-4-[[4-[(19-carboxynonadecanoylamino)methyl]cyclohexanecarbonyl]amino]butanoyl]amino]ethoxy]ethoxy]ethoxy]ethoxy]propanoylLys-Gly-Gly-Ser-N{Epsilon}3-[2-[2-[2-[2-[[(4S)-4-carboxy-4-[[4-[(19-carboxynonadecanoylamino)methyl]cyclohexanecarbonyl]amino]butanoyl]amino]ethoxy]ethoxy]ethoxy]ethoxy]propanoylLys] (H-H[Aib]EGTFTSDVSSYLEEQAAREFIAWLVRGRGK([PEG4-γGlu-Trx-C20 diacid])GGSK([PEG4-γGlu-Trx-C20 diacid])-OH) | 123 nM | 1.3 nM | 0.027 nM
CC[C@H](C)[C@H](NC(=O)[C@H](Cc1ccccc1)NC(=O)[C@H](CCC(=O)O)NC(=O)[C@H](CCCNC(=N)N)NC(=O)[C@H](C)NC(=O)[C@H](C)NC(=O)[C@H](CCC(N)=O)NC(=O)[C@H](CCC(=O)O)NC(=O)[C@H](CCC(=O)O)NC(=O)[C@H](CC(C)C)NC(=O)[C@H](Cc1ccc(O)cc1)NC(=O)[C@H](CO)NC(=O)[C@H](CO)NC(=O)[C@@H](NC(=O)[C@H](CC(=O)O)NC(=O)[C@H](CO)NC(=O)[C@@H](NC(=O)[C@H](Cc1ccccc1)NC(=O)[C@@H](NC(=O)CNC(=O)[C@H](CCC(=O)O)NC(=O)C(C)(C)NC(=O)[C@@H](N)Cc1c[nH]cn1)[C@@H](C)O)[C@@H](C)O)C(C)C)C(=O)N[C@@H](C)C(=O)N[C@@H](Cc1c[nH]c2ccccc12)C(=O)N[C@@H](CC(C)C)C(=O)N[C@H](C(=O)N[C@@H](CCCNC(=N)N)C(=O)NCC(=O)N[C@@H](CCCNC(=N)N)C(=O)NCC(=O)N[C@@H](CCCCNC(=O)COCCOCCNC(=O)COCCOCCNC(=O)CC[C@H](NC(=O)[C@H]1CC[C@H](CNC(=O)CCCCCCCCCCCCCCCCCCC(=O)O)CC1)C(=O)O)C(=O)N1CCC[C@H]1C(=O)N[C@@H](CCC(=O)O)C(=O)NCC(=O)N[C@@H](CCCCNC(=O)COCCOCCNC(=O)COCCOCCNC(=O)CC[C@H](NC(=O)[C@H]1CC[C@H](CNC(=O)CCCCCCCCCCCCCCCCCCC(=O)O)CC1)C(=O)O)C(=O)O)C(C)C [Example 12] (H-H[Aib]EGTFTSDVSSYLEEQAAREFIAWLVRGRGK([AEEA-AEEA-γGlu-Trx-C20 diacid])PEGK([AEEA-AEEA-γGlu-Trx-C20 diacid])-OH) | 212 nM | 1.4 nM | 0.024 nM
CC[C@H](C)[C@H](NC(=O)[C@H](Cc1ccccc1)NC(=O)[C@H](CCC(=O)O)NC(=O)[C@H](CCCNC(=N)N)NC(=O)[C@H](C)NC(=O)[C@H](C)NC(=O)[C@H](CCC(N)=O)NC(=O)[C@H](CCC(=O)O)NC(=O)[C@H](CCC(=O)O)NC(=O)[C@H](CC(C)C)NC(=O)[C@H](Cc1ccc(O)cc1)NC(=O)[C@H](CO)NC(=O)[C@H](CO)NC(=O)[C@@H](NC(=O)[C@H](CC(=O)O)NC(=O)[C@H](CO)NC(=O)[C@@H](NC(=O)[C@H](Cc1ccccc1)NC(=O)[C@@H](NC(=O)CNC(=O)[C@H](CCC(=O)O)NC(=O)C(C)(C)NC(=O)[C@@H](N)Cc1c[nH]cn1)[C@@H](C)O)[C@@H](C)O)C(C)C)C(=O)N[C@@H](C)C(=O)N[C@@H](Cc1c[nH]c2ccccc12)C(=O)N[C@@H](CC(C)C)C(=O)N[C@H](C(=O)N[C@@H](CCCNC(=N)N)C(=O)NCC(=O)N[C@@H](CCCNC(=N)N)C(=O)NCC(=O)N[C@@H](CCCCNC(=O)COCCOCCNC(=O)COCCOCCNC(=O)CC[C@H](NC(=O)[C@H]1CC[C@H](CNC(=O)CCCCCCCCCCCCCCCCCCC(=O)O)CC1)C(=O)O)C(=O)N[C@@H](CO)C(=O)N[C@@H](C)C(=O)N[C@@H](CCC(=O)O)C(=O)N[C@@H](CCCCNC(=O)COCCOCCNC(=O)COCCOCCNC(=O)CC[C@H](NC(=O)[C@H]1CC[C@H](CNC(=O)CCCCCCCCCCCCCCCCCCC(=O)O)CC1)C(=O)O)C(=O)O)C(C)C [Example 13] (H-H[Aib]EGTFTSDVSSYLEEQAAREFIAWLVRGRGK([AEEA-AEEA-γGlu-Trx-C20 diacid])SAEK([AEEA-AEEA-γGlu-Trx-C20 diacid])-OH) | 160 nM | 1.4 nM | 0.024 nM
CC[C@H](C)[C@H](NC(=O)[C@H](Cc1ccccc1)NC(=O)[C@H](CCC(=O)O)NC(=O)[C@H](CCCNC(=N)N)NC(=O)[C@H](C)NC(=O)[C@H](C)NC(=O)[C@H](CCC(N)=O)NC(=O)[C@H](CCC(=O)O)NC(=O)[C@H](CCC(=O)O)NC(=O)[C@H](CC(C)C)NC(=O)[C@H](Cc1ccc(O)cc1)NC(=O)[C@H](CO)NC(=O)[C@H](CO)NC(=O)[C@@H](NC(=O)[C@H](CC(=O)O)NC(=O)[C@H](CO)NC(=O)[C@@H](NC(=O)[C@H](Cc1ccccc1)NC(=O)[C@@H](NC(=O)CNC(=O)[C@H](CCC(=O)O)NC(=O)C(C)(C)NC(=O)[C@@H](N)Cc1c[nH]cn1)[C@@H](C)O)[C@@H](C)O)C(C)C)C(=O)N[C@@H](C)C(=O)N[C@@H](Cc1c[nH]c2ccccc12)C(=O)N[C@@H](CC(C)C)C(=O)N[C@H](C(=O)N[C@@H](CCCNC(=N)N)C(=O)NCC(=O)N[C@@H](CCCCNC(=O)COCCOCCNC(=O)COCCOCCNC(=O)CC[C@H](NC(=O)[C@H]1CC[C@H](CNC(=O)CCCCCCCCCCCCCCCCCCC(=O)O)CC1)C(=O)O)C(=O)NCC(=O)N[C@@H](C)C(=O)N[C@@H](CCC(=O)O)C(=O)N[C@@H](CO)C(=O)N1CCC[C@H]1C(=O)N[C@@H](CCCCNC(=O)COCCOCCNC(=O)COCCOCCNC(=O)CC[C@H](NC(=O)[C@H]1CC[C@H](CNC(=O)CCCCCCCCCCCCCCCCCCC(=O)O)CC1)C(=O)O)C(=O)O)C(C)C [Example 14] (H-H[Aib]EGTFTSDVSSYLEEQAAREFIAWLVRGK([AEEA-AEEA-γGlu-Trx-C20 diacid])GAESPK([AEEA-AEEA-γGlu-Trx-C20 diacid])-OH) | 530 nM | 1.5 nM | 0.022 nM
